This note sets out measurements from PubChem BioAssay AID256 (DTP/NCI, 2004).

“And” between values parts separate entries of the source, which are not always exact repeats. Identical values can stand only once. Inconclusive results and toxic doses are left out.

The assay relates to CD2F1 mice, L1210 leukemia ip, survival T/C. As to the kind of experiment: NCI In Vivo Anticancer Drug Screen. Data for tumor model L1210 Leukemia (intraperitoneal) in CD2F1 (CDF1) mice. The note with it: higher = longer survival. Put shortly: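 Activity against a transplanted murine tumor was judged by comparing the compound group with a vehicle group. The outcome in the treated animals was divided by that in the controls.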

Where [1] appears, read: endpoint: mean survival time, dose: 100.0 mg/kg/injection, schedule: Q01DX009 (ip), vehicle: saline with Tween-80.
The mark [2] stands for this setting: endpoint: mean survival time, dose: 200.0 mg/kg/injection, schedule: Q01DX009 (ip), vehicle: saline with Tween-80.
Setting [3] is: endpoint: mean survival time, dose: 400.0 mg/kg/injection, schedule: Q01DX009 (ip), vehicle: saline with Tween-80.
Where [4] appears, read: endpoint: mean survival time, dose: 100.0 mg/kg/injection, schedule: Q04DX002 (ip), vehicle: saline with Tween-80.
Setting [5] is: endpoint: mean survival time, dose: 200.0 mg/kg/injection, schedule: Q04DX002 (ip), vehicle: saline with Tween-80.
Setting [6] is: endpoint: mean survival time, dose: 50.0 mg/kg/injection, schedule: Q01DX009 (ip), vehicle: saline.
Setting [7] is: endpoint: mean survival time, dose: 100.0 mg/kg/injection, schedule: Q01DX009 (ip), vehicle: saline.
Setting [8] is: endpoint: mean survival time, dose: 100.0 mg/kg/injection, schedule: Q04DX003 (ip), vehicle: saline.
[9] abbreviates: endpoint: mean survival time, dose: 200.0 mg/kg/injection, schedule: Q04DX003 (ip), vehicle: saline.
Setting [10] is: endpoint: mean survival time, dose: 100.0 mg/kg/injection, schedule: Q04DX003 (ip), vehicle: saline with Tween-80.
Setting [11] is: endpoint: mean survival time, dose: 200.0 mg/kg/injection, schedule: Q04DX003 (ip), vehicle: saline with Tween-80.

Turning to `Cc1c2ccccc2c(C)c2c1cc(C(=O)O)c1ccccc12`, the T/C (endpoint: mean survival time, dose: 12.5 mg/kg/injection, schedule: Q04DX002 (ip), vehicle: Klucel (hydroxypropylcellulose) (HPC)) was 106 % of control; the T/C (endpoint: mean survival time, dose: 25.0 mg/kg/injection, schedule: Q04DX002 (ip), vehicle: Klucel (hydroxypropylcellulose) (HPC)) is 101 % of control; the T/C (endpoint: mean survival time, dose: 50.0 mg/kg/injection, schedule: Q04DX002 (ip), vehicle: Klucel (hydroxypropylcellulose) (HPC)) was 106 % of control; the T/C (endpoint: mean survival time, dose: 100.0 mg/kg/injection, schedule: Q04DX002 (ip), vehicle: Klucel (hydroxypropylcellulose) (HPC)) was 107 % of control; the T/C (endpoint: mean survival time, dose: 150.0 mg/kg/injection, schedule: Q04DX002 (ip), vehicle: Klucel (hydroxypropylcellulose) (HPC)) is 112 % of control; the T/C (endpoint: median survival time, dose: 25.0 mg/kg/injection, schedule: Q01DX009 (ip), vehicle: sodium bicarbonate) was 111 % of control. For the same compound, the T/C (endpoint: median survival time, dose: 50.0 mg/kg/injection, schedule: Q01DX009 (ip), vehicle: sodium bicarbonate) was 115 % of control and 117 % of control; the T/C (endpoint: median survival time, dose: 200.0 mg/kg/injection, schedule: Q01DX009 (ip), vehicle: sodium bicarbonate) was 122 % of control; the T/C (endpoint: median survival time, dose: 400.0 mg/kg/injection, schedule: Q01DX009 (ip), vehicle: sodium bicarbonate) was 107 % of control.
As to `O=C(NC1CCC(CC2CCCCC2)CC1)c1ccccc1` (stereo not given), the T/C under setting [1] is 100 % of control, the T/C under setting [2] was 93 % of control and the T/C under setting [3] was 114 % of control.
As for `Cn1c(=O)[nH]c2c(nc(-c3ccccc3)n2Cc2ccccc2)c1=O`, the T/C by setting is: (endpoint: mean survival time, dose: 7.8 mg/kg/injection, schedule: Q01DX005 (ip), vehicle: other) 95 % of control; (endpoint: mean survival time, dose: 15.6 mg/kg/injection, schedule: Q01DX005 (ip), vehicle: other) 95 % of control; (endpoint: mean survival time, dose: 31.3 mg/kg/injection, schedule: Q01DX005 (ip), vehicle: other) 91 % of control; (endpoint: mean survival time, dose: 62.5 mg/kg/injection, schedule: Q01DX005 (ip), vehicle: other) 91 % of control; (endpoint: mean survival time, dose: 125.0 mg/kg/injection, schedule: Q01DX005 (ip), vehicle: other) 95 % of control.
In the case of `CC1NC(=O)OC1(C)c1ccccc1` (stereo not given), the T/C under setting [4] was 103 % of control and the T/C under setting [5] is 98 % of control.
Take `Cc1cccc(NC(=O)Nc2ccc(Oc3ccccc3Cl)c(S(=O)(=O)O)c2)c1`: the T/C reads like this: under setting [6], 101 % of control; under setting [7], 95 % of control; under setting [8], 95 % of control; under setting [9], 95 % of control.
Consider `CC([NH-])CC[NH-].O=[N+]([O-])O.O=[N+]([O-])O.[Pt+2]` (stereo not given), for which, where the note is “endpoint: mean survival time, dose: 6.25 mg/kg/injection, schedule: Q04DX003 (ip), vehicle: saline with Tween-80”, the T/C was 169 % of control.
On to `CCOC(CNCc1cccc(OC)c1)OCC`, for which the T/C is, setting by setting: (endpoint: mean survival time, dose: 100.0 mg/kg/injection, schedule: Q01DX001 (ip), vehicle: saline) 100 % of control; (endpoint: mean survival time, dose: 200.0 mg/kg/injection, schedule: Q01DX001 (ip), vehicle: saline) 100 % of control.
`O=[As](O)(O)c1cccc2ccccc12`: the T/C runs as follows: (endpoint: mean survival time, dose: 1.25 mg/kg/injection, schedule: Q01DX009 (ip), vehicle: saline) 90 % of control; (endpoint: mean survival time, dose: 2.5 mg/kg/injection, schedule: Q01DX009 (ip), vehicle: saline) 111 % of control.
Take `CCCC(N(C)C)P(=O)(O)O` (stereo not given): the T/C was 95 % of control under setting [8]; 101 % of control under setting [9]; 101 % of control (endpoint: mean survival time, dose: 400.0 mg/kg/injection, schedule: Q04DX003 (ip), vehicle: saline).
Regarding `CCOC(=O)c1ccc(NC(=O)Oc2ccc(NC(C)=O)cc2)cc1`, the T/C under setting [1] was 95 % of control and 102 % of control; the T/C under setting [4] was 91 % of control and 94 % of control; the T/C under setting [10] was 89 % of control; the T/C under setting [2] is 96 % of control and 100 % of control; the T/C under setting [5] was 94 % of control and 105 % of control; the T/C under setting [11] is 86 % of control. Further, the T/C was 92 % of control and 96 % of control under setting [3]; 92 % of control (endpoint: mean survival time, dose: 400.0 mg/kg/injection, schedule: Q04DX002 (ip), vehicle: saline with Tween-80); 86 % of control (endpoint: mean survival time, dose: 400.0 mg/kg/injection, schedule: Q04DX003 (ip), vehicle: saline with Tween-80).
Regarding `CCC[CH2][Sn]([CH2]CC)([CH2]CCC)[O]C(=O)c1ccccc1`, the T/C is 104 % of control (endpoint: mean survival time, dose: 0.78 mg/kg/injection, schedule: Q01DX009 (ip), vehicle: saline with Tween-80) and 107 % of control (endpoint: mean survival time, dose: 1.56 mg/kg/injection, schedule: Q01DX009 (ip), vehicle: saline with Tween-80).
Take `NCCc1cc(O)c(O)c(O)c1`: the T/C (endpoint: mean survival time, dose: 12.5 mg/kg/injection, schedule: Q01DX009 (ip), vehicle: saline) is 96 % of control and 100 % of control; the T/C (endpoint: mean survival time, dose: 25.0 mg/kg/injection, schedule: Q01DX009 (ip), vehicle: saline) is 100 % of control and 102 % of control; the T/C under setting [6] was 103 % of control and 106 % of control; the T/C under setting [7] is 122 % of control; the T/C (endpoint: mean survival time, dose: 200.0 mg/kg/injection, schedule: Q01DX009 (ip), vehicle: saline) is 119 % of control and 124 % of control; the T/C (endpoint: mean survival time, dose: 400.0 mg/kg/injection, schedule: Q01DX009 (ip), vehicle: saline) was 119 % of control.
Take `CN1CCCCCC1`: the T/C under setting [10] is 100 % of control and the T/C under setting [11] is 111 % of control.
Take `CC(C)(COCc1ccccc1)COP(N)(=O)N(CCCl)CCCl` (stereo not given): the T/C is 102 % of control (endpoint: mean survival time, dose: 25.0 mg/kg/injection, schedule: Q01DX001 (ip), vehicle: other); 93 % of control (endpoint: mean survival time, dose: 50.0 mg/kg/injection, schedule: Q01DX001 (ip), vehicle: other); 87 % of control (endpoint: mean survival time, dose: 100.0 mg/kg/injection, schedule: Q01DX001 (ip), vehicle: other); 96 % of control (endpoint: mean survival time, dose: 200.0 mg/kg/injection, schedule: Q01DX001 (ip), vehicle: other); 98 % of control (endpoint: mean survival time, dose: 400.0 mg/kg/injection, schedule: Q01DX001 (ip), vehicle: other).
